Patent US10329324B2 (viDA Therapeutics Inc., priority 2013, dated 2019)
Structures can show the parent of a compound that is named as a salt. Where two headings read alike, the source gives them in different places.

Columns and labels:
human Granzyme B (hGzmB) = biological target: T1, human Granzyme B (hGzmB) (Homo sapiens, UniProt P10144); assay: Human Granzyme B enzymatic inhibition assay (fluorogenic, kinetic); format: biochemical; settings: activity codes, Table 7; read-out: IC50 Activity Range
T1 construct: purchased Froelich Lab, Northshore University Health Systems Research Institute, Evanston, Ill., USA
Procedure, shortened: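 Human Granzyme B preincubated with compound for 30 min total (5 min shaking, 20 min bench, then reaction temperature). Fluorogenic substrate added and read kinetically, 25 cycles at 1-min intervals. Percent inhibition at one or two concentrations or 8–12-point 3-fold dose response from 20 uM, replicates, with IC50 by non-linear regression.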

[1] = Kinetic solubility determination in PBS; format: physicochemical; settings: phosphate buffered saline (PBS 1×), 21 °C, pH 7.4, aqueous buffer, kinetic from dmso stock, PBS 1X pH 7.4, 2.0% DMSO, 24 hour incubation at ambient temperature
Procedure, shortened: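 DMSO stocks were diluted into PBS (1×) pH 7.4 to 2.0% final DMSO and a maximum theoretical concentration of typically 200 μM. After 24 hour incubation at ambient temperature (20.5-21.7° C.), samples were vacuum filtered. The filtrate was quantified by chemiluminescent nitrogen detection against a nitrogen calibration curve, with background-corrected values given in μM and μg/mL.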

GzmB = GzmB (Homo sapiens, UniProt P10144); assay: Inhibition of fibronectin cleavage by GzmB; format: biochemical; settings: 20 nM granzyme B, labeled fibronectin; for inhibition at 0.62 µM: 0.62 uM inhibitor, read-out: Percent Inhibition at Inhibitor Concentration 0.62 uM; for inhibition at 5.56 µM: 5.56 uM inhibitor, read-out: Percent Inhibition at Inhibitor Concentration 5.56 uM; for inhibition at 50 µM: 50 uM inhibitor, read-out: Percent Inhibition at Inhibitor Concentration 50 uM
Method: Black, 96 well high-binding assay plates (Griener Bio-one) were treated overnight at 4° C. with 40 uL of 8 ug/mL Hilyte Fluor 488 labeled Fibronectin (Cytoskeleton, Inc). After fibronectin coating, plates were washed 3 times in buffer (20 mM Tris-HCl, pH 7.4, 20 mM NaCl) then once with granzyme B assay buffer (50 mM HEPES, pH 7.5, 0.1% CHAPS). After washing, 50 uL of granzyme B assay buffer was added to each fibronectin-coated well. In a separate non-binding 96 well assay plate 5 uL of 20× inhibitor serial dilution stocks were added to 45 uL of 2.22×GzmB mix to establish inhibition (enzyme/inhibitor mixes were all prepared in granzyme B assay buffer and were incubated first at room temperature for 20 minutes, then at 30° C. for another 10 minutes). After incubation, 50 uL of this 2× enzyme/inhibitor mix was added to the corresponding coated well to initiate fibronectin cleavage (20 nM final granzyme B concentration, 8-point inhibitor dilution series starting at 50 uM). The assay was conducted at 30° C. in the TECAN plate reader (TECAN INFINITE® M1000 Pro), which was programmed to monitor the kinetic fluorescence polarization signal (filter set Ex/Em 470 nm/527 nm) with readings taken every minute, for 1 hour. Proteolytic activity was evaluated as the rate of fluorescence enhancement in the parallel emission over the linear range of the reaction. % Inhibition values were calculated from assay controls and the resulting date is shown in Table 8.

[2] = read-out: Solubility in aqueous PBS Buffer (1X, pH 7.4)
[3] = read-out: Solubility in aqueous PBS Buffer (1X, pH 7.4), ug/mL

Chain of GzmB (P10144 21-247): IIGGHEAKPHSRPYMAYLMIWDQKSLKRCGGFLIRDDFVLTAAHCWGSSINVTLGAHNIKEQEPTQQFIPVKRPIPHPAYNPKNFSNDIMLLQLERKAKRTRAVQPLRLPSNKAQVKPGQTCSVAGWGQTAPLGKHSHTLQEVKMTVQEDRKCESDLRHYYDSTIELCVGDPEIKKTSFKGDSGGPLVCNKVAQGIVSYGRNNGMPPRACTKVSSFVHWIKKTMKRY
T1 sequence (P10144 21-247): as above

Q: Which results are given for `CC[C@H](C)[C@H](NC(=O)CCC(=O)O)C(=O)NCC(=O)N1c2ccccc2C[C@H]1C(=O)NCc1nn[nH]n1` [Example A13, 3-{[(1S,2S)-2-Methyl-1-({2-Oxo-2-[(2S)-2-[(2H-1,2,3,4-Tetrazol-5-Ylmethyl)Carbamoyl]-2,3-Dihydro-1H-Indol-1-Yl]Ethyl}Carbamoyl)Butyl]Carbamoyl}Propanoic Acid]?
A: IC50 (human Granzyme B (hGzmB)): < 100 nM; solubility at 24 h [1, 2]: > 750 µM; solubility at 24 h [1, 3]: > 386 µg/mL; inhibition at 0.62 µM (GzmB): 11%; inhibition at 5.56 µM (GzmB): 52%; inhibition at 50 µM (GzmB): 82%

Q: Which results are given for `CC[C@H](C)[C@H](NC(=O)Cc1csc2ccccc12)C(=O)NCC(=O)N1c2ccccc2C[C@H]1C(=O)NCc1nn[nH]n1` [Example A27, (2S)-1-{2-[(2S,3S)-2-[2-(1-Benzothiophen-3-Yl)Acetamido]-3-Methylpentanamido]Acetyl}-N-(2H-1,2,3,4-Tetrazol-5-Ylmethyl)-2,3-Dihydro-1H-Indole-2-Carboxamide]?
A: IC50 (human Granzyme B (hGzmB)): < 100 nM; solubility at 24 h [1, 2]: 53 µM; solubility at 24 h [1, 3]: 31 µg/mL; inhibition at 0.62 µM (GzmB): 57%; inhibition at 5.56 µM (GzmB): 96%; inhibition at 50 µM (GzmB): 102%

Q: For `CC[C@H](C)[C@H](NC(=O)Cc1nn[nH]n1)C(=O)NCC(=O)N1c2ccccc2C[C@H]1C(=O)NCc1nn[nH]n1` [Example A28, (2S)-1-{2-[(2S,3S)-3-Methyl-2-[2-(2H-1,2,3,4-Tetrazol-5-Yl)Acetamido]Pentanamido]Acetyl}-N-(2H-1,2,3,4-Tetrazol-5-Ylmethyl)-2,3-Dihydro-1H-Indole-2-Carboxamide], which IC50 (human Granzyme B (hGzmB)) is on record?
A: < 100 nM

Q: And the solubility at 24 h [1, 2]?
A: > 750 µM

Q: And the solubility at 24 h [1, 3]?
A: > 393 µg/mL

Q: And the inhibition at 0.62 µM (GzmB)?
A: 45%

Q: And the inhibition at 5.56 µM (GzmB)?
A: 79%

Q: What about the inhibition at 50 µM (GzmB) of the same compound?
A: 98%

Q: With `CC[C@H](C)[C@H](NC(=O)Cc1ccccc1)C(=O)NCC(=O)N1c2ccc(N)cc2C[C@H]1C(=O)NCc1nn[nH]n1` [Example C32, (2S)-5-Amino-1-{2-[(2S,3S)-3-Methyl-2-(2-Phenylacetamido)Pentanamido]Acetyl}-N-(2H-1,2,3,4-Tetrazol-5-Ylmethyl)-2,3-Dihydro-1H-Indole-2-Carboxamide Hydrochloride] as the compound, how does the IC50 (human Granzyme B (hGzmB)) read?
A: 100 to 1000 nM

Q: What about the solubility at 24 h [1, 2] of the same compound?
A: > 750 µM

Q: And the solubility at 24 h [1, 3]?
A: > 438 µg/mL
